Experimental data published in US10273237B2, “Imidazopyridazine compounds useful as modulators of IL-12, IL-23 and/or IFN-α responses” (BRISTOL-MYERS SQUIBB COMPANY, priority 2013, dated 2019).
pEC50, pIC50: −log10 of the molar value.

Assays:
[1] = target: T1, His-tagged protein corresponding to amino acids 575-869 of human Tyk2 (Homo sapiens, UniProt P29597); assay: Probe displacement assay (scintillation proximity, radiolabeled probe); format: binding; conditions: 2.5 nM Tyk2 (575-869), 40 nM [3H] probe, 30 minutes at room temperature
T1 construct: made in house
T1 sequence (P29597 with tags, fused parts or gaps): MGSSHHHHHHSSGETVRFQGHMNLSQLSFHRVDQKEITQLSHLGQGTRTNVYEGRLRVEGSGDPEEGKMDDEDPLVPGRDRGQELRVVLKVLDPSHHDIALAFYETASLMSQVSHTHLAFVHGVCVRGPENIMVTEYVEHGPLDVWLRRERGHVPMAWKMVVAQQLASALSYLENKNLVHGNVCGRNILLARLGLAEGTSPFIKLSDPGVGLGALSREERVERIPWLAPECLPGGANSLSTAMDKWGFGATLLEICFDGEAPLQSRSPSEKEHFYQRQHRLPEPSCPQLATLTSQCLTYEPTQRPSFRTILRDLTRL
Protocol: The preparation of radiolabeled probe, (R)—N-(1-(3-(8-methyl-5-(methylamino)-8H-imidazo[4,5-d]thiazolo[5,4-b]pyridin-2-yl)phenyl)ethyl)-2-([^3H]methylsulfonyl)benzamide, was performed as described below: […]

[2] = system: IL-23-stimulated Kit225 T cells with STAT-dependent luciferase reporter; assay: Kit225 T cell assay, STAT-dependent luciferase reporter, IL-23 stimulated; format: cell-based, human; conditions: Homo sapiens, KIT225, 20 ng/mL human recombinant IL-23, 5-6 hours, read-out: IL-23 Kit225 Reporter, LE (IC50)
Procedure, shortened: (§1)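 Kit225 T cells carrying a stably integrated STAT-dependent luciferase reporter, in RPMI with 10% heat-inactivated FBS, stimulated with 20 ng/mL human recombinant IL-23 or 200 U/mL human recombinant IFNα for 5-6 h. Luciferase expression read by Steady-Glo luminescence.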

[3] = system: IFNα-stimulated Kit225 T cells with STAT-dependent luciferase reporter; assay: Kit225 T cell assay, STAT-dependent luciferase reporter, IFNα stimulated; format: cell-based, human; conditions: Homo sapiens, KIT225, 200 U/mL human recombinant IFNα, 5-6 hours, read-out: IFNa Kit225 Reporter, LE (IC50)
Procedure, shortened: as §1

Row | Structure (SMILES) | pEC50 [1] | pIC50 [2] | pIC50 [3]
1 | CNc1cc(Nc2cccn(-c3cccc(F)n3)c2=O)nn2c(C(=O)N[C@@H]3C[C@@H]3F)cnc12 [Example 145] | 8.30 | 7.52 | 8.00
2 | CNc1cc(Nc2cccn(-c3ccc(C(F)(F)F)cc3)c2=O)nn2c(C(=O)NCC(C)(C)CO)cnc12 [Example 136] | 7.96 | 6.77 | 7.10
3 | CNc1cc(Nc2cccn(-c3nccs3)c2=O)nn2c(C(=O)NC3CC3)cnc12 [Example 35] | 8.30 | 7.70 | 7.30
4 | CNc1cc(Nc2cccn(-c3ccc(C(F)F)cc3)c2=O)nn2c(C(=O)NCC(C)(C)CO)cnc12 [Example 124] | 8.40 | 6.82 | 7.10
5 | CNc1cc(Nc2cccn(-c3ccccc3)c2=O)nn2c(C(=O)N[C@H]3CCCC[C@H]3O)cnc12 [Example 188] | 7.68 | 7.15 | 6.64
6 | CNc1cc(Nc2ccnn(-c3ccccc3)c2=O)nn2c(C(=O)N[C@@H]3C[C@@H]3F)cnc12 [Example 180] | 7.77 | 7.30 | 7.70

The next lines start with the values.

Row | pEC50 [1] | pIC50 [2] | pIC50 [3] | Structure (SMILES)
7 | 8.10 | 6.46 | 6.48 | CNc1cc(Nc2cccn(-c3ccc(S(C)(=O)=O)cc3)c2=O)nn2c(C(=O)NC3CC3)cnc12 [Example 202]
8 | 8.15 | 6.54 | 6.59 | CNc1cc(Nc2cccn(C3CCN(C(=O)c4ncc[nH]4)CC3)c2=O)nn2c(C(=O)NC3CC3)cnc12 [Example 245]
9 | 7.14 | 6.44 | 6.09 | CNc1cc(Nc2cccn(C)c2=O)nn2c(C(=O)NCC3CCC3)cnc12 [Example 214]
